Measurements: ChEMBL document CHEMBL5465560, “Selectivity Literature for EUbOPEN Chemogenomic Library” (2024)

Experiments:
[1] = biological target: T1, Serine/threonine-protein kinase TNNI3K (Homo sapiens) (UniProt Q59H18); details: at 10 µM
T1 sequence (whole entry): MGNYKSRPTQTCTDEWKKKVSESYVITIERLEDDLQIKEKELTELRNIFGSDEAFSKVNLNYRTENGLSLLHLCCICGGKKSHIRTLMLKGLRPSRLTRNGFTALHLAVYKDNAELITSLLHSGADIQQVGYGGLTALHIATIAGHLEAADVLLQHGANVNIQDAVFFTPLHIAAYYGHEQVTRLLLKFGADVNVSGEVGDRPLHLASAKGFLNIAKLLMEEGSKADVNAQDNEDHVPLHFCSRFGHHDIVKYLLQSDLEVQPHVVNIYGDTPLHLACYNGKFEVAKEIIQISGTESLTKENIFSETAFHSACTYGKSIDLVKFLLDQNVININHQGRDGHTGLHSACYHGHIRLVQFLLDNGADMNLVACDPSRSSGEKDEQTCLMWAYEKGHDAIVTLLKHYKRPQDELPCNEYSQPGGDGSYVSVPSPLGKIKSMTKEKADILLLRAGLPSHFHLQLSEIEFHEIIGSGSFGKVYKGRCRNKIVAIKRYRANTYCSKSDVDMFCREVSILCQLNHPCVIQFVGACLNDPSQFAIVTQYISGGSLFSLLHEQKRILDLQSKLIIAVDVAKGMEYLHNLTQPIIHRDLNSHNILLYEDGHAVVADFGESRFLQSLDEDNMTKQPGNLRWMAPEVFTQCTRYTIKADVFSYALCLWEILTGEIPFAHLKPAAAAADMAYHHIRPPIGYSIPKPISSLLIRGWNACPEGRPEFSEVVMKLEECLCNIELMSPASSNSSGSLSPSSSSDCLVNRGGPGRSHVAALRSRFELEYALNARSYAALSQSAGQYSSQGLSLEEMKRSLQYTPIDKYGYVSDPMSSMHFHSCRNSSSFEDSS

[2] = biological target: Mitogen-activated protein kinase 6 (Homo sapiens) (UniProt Q16659); assay: Selectivity interaction (KinomeScan (DiscoverX)) EUB0000229b MAPK6; details: at 10 µM
Chain of Mitogen-activated protein kinase 6 (Homo sapiens) (Q16659 whole entry): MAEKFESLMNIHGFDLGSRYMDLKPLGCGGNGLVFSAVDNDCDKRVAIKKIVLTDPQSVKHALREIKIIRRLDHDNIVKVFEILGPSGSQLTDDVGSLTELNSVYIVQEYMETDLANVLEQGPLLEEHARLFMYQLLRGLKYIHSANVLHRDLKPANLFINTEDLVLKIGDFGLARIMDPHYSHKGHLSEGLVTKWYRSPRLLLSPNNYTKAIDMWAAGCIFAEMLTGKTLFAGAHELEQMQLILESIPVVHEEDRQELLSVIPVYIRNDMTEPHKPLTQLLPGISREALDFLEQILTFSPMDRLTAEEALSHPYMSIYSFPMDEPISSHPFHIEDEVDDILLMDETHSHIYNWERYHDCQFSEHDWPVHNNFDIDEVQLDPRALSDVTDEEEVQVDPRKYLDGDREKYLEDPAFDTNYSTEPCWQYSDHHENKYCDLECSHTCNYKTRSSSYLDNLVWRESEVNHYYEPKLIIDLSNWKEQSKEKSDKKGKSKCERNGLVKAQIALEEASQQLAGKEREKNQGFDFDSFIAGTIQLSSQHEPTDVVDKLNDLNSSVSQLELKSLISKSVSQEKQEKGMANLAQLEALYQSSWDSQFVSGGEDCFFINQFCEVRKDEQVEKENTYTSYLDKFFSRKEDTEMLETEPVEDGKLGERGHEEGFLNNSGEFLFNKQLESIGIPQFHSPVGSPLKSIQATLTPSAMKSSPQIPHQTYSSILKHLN

[3] = biological target: T2, NUAK family SNF1-like kinase 1 (Homo sapiens) (UniProt O60285); assay: Selectivity interaction (KinomeScan (DiscoverX)) EUB0000092b NUAK1; details: at 10 µM
T2 sequence (whole entry): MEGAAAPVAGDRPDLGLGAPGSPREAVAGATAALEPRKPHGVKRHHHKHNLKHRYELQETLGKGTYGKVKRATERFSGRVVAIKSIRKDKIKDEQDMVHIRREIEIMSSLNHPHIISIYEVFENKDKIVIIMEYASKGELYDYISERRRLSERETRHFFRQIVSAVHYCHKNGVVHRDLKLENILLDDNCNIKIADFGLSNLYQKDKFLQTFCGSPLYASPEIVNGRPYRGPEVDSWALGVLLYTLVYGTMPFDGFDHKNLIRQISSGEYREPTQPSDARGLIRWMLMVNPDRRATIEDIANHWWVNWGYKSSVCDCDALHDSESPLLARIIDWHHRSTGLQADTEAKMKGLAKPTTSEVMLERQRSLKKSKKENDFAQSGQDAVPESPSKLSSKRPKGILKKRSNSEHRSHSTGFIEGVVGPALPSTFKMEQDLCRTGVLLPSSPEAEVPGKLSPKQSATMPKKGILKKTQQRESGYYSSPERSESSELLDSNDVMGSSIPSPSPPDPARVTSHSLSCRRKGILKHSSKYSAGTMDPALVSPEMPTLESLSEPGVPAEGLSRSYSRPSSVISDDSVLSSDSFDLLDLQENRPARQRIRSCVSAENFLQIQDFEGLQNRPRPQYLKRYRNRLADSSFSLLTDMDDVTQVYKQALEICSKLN

[4] = biological target: Calcium/calmodulin-dependent protein kinase type 1D (Homo sapiens) (UniProt Q8IU85); details: at 10 µM
Chain of Calcium/calmodulin-dependent protein kinase type 1D (Homo sapiens) (Q8IU85 whole entry, looked up): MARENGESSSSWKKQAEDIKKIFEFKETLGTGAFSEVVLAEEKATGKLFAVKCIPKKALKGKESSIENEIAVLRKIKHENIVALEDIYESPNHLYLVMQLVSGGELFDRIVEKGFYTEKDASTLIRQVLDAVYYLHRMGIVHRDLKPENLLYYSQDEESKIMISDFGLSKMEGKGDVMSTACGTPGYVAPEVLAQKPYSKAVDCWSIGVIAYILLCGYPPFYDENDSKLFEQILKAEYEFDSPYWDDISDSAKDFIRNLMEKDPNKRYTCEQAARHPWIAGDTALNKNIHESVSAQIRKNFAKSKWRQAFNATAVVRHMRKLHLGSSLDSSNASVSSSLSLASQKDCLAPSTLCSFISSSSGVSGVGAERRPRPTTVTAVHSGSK

[5] = biological target: Mitogen-activated protein kinase kinase kinase kinase 1 (Homo sapiens) (UniProt Q92918); assay: Selectivity interaction (ActivX KiNativ screen (kinase selectivity in THP-1 cell lysates)) EUB0000639a MAP4K1; format: subcellular; details: lysate, at 0.2 µM
Chain of Mitogen-activated protein kinase kinase kinase kinase 1 (Homo sapiens) (Q92918 whole entry, looked up): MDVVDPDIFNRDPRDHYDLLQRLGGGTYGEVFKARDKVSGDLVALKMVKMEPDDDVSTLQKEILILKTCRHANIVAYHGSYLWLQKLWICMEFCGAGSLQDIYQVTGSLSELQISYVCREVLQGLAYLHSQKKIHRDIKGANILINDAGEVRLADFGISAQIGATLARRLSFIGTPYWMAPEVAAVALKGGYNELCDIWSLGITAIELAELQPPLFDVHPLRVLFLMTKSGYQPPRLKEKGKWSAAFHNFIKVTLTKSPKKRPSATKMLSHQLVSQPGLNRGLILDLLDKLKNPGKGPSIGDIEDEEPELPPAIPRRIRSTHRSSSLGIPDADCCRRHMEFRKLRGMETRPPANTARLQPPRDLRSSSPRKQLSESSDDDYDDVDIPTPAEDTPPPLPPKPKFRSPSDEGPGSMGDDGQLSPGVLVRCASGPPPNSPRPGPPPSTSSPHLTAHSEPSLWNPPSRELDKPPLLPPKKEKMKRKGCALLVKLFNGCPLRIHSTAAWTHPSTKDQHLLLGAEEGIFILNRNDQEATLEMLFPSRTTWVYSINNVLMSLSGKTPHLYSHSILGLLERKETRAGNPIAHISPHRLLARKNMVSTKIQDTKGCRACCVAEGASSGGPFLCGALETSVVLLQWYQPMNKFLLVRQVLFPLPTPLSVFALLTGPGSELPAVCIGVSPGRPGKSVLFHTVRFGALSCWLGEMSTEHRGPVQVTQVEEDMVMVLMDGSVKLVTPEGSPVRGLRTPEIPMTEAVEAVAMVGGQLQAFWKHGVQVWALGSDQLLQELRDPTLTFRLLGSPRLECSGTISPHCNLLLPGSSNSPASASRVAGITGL

[6] = biological target: Cyclin-dependent kinase 15 (Homo sapiens) (UniProt Q96Q40); assay: Selectivity interaction (KinomeScan (DiscoverX)) EUB0001619a CDK15; details: at 1 µM
Chain of Cyclin-dependent kinase 15 (Homo sapiens) (Q96Q40 whole entry): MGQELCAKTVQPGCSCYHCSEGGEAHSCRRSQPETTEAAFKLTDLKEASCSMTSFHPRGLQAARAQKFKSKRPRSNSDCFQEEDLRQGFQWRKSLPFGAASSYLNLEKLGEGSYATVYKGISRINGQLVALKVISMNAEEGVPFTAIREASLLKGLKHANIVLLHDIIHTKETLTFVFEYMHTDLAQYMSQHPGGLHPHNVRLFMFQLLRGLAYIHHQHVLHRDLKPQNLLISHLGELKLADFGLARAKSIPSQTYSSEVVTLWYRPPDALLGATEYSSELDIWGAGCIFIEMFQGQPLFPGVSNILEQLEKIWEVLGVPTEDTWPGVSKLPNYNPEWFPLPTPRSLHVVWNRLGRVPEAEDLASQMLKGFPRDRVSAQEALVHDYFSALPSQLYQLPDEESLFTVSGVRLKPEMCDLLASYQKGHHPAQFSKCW

[7] = biological target: T3, Serine/threonine-protein kinase TBK1 (Homo sapiens) (UniProt Q9UHD2); assay: Selectivity interaction (KinomeScan (DiscoverX)) EUB0001619a TBK1; details: at 1 µM
T3 sequence (whole entry): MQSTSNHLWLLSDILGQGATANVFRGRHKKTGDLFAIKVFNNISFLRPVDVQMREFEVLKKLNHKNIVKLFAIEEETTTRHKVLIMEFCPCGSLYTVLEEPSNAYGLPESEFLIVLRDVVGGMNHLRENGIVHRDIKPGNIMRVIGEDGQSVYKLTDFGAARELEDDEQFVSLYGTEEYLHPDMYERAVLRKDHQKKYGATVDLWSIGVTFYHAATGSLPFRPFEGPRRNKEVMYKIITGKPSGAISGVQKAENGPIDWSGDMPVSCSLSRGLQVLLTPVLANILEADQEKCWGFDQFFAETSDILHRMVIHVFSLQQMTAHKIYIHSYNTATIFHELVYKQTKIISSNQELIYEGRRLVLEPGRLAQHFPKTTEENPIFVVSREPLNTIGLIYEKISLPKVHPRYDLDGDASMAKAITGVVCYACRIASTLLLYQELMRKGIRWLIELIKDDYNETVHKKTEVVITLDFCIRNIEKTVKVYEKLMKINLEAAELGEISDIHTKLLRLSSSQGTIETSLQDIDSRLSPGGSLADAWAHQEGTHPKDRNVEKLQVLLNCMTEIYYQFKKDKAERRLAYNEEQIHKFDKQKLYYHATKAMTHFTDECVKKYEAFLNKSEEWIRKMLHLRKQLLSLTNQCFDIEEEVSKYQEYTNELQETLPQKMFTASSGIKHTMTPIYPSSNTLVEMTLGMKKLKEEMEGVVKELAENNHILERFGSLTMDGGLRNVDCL

CCN(CC)CCCCNc1ncc2cc(-c3cc(OC)cc(OC)c3)c(NC(=O)NC(C)(C)C)nc2n1
% of control [1]: 100%

COc1cc(N(C)c2ccnc3ccc(C(F)(F)F)cc23)cc(OC)c1OC
% binding [2]: 100%

CCC(=O)N1CCN(c2ccc(-n3c(=O)ccc4cnc5ccc(-c6cnc7ccccc7c6)cc5c43)cc2C(F)(F)F)CC1
% of control [3]: 100%

Cc1cc([C@@H](C)Nc2ccccc2C(=O)O)c2nc(N3CCOCC3)cc(=O)n2c1 [AZD-6482]
% of control [4]: 100%

CC[C@@H]1[C@H](F)C(=O)N[C@@H]1COc1nccc2cc(C(N)=O)c(OC)cc12 [ZIMLOVISERTIB]
% of inhibition [5]: -15.1%

N#Cc1cccc(-c2c[nH]c3ncnc(N4CCOCC4)c23)c1
% of control [6]: 100%
% of control [7]: 100%
